In general, IC50 refers to the concentration that gives 50% inhibition.

Data set [1] deals with T1, CYP2D6 (Homo sapiens, UniProt P10635).
T1 construct: from tissue; host or cells: human liver microsomes
Briefly: CYP inhibition evaluation in human liver microsomes, CYP2D6 (dextromethorphan). The data set is classed as in vitro ADME. The settings on record: probe substrate dextromethorphan. The protocol: (§1) Incubations were performed in human liver microsomes using probe substrate concentrations similar to their corresponding Km values. Enzyme activity was evaluated in the presence of various concentrations of A-998679. The incubations consisted of the test article at varying concentrations (0–30 μM), probe substrate (concentration ~Km, see Table A2), human liver microsomal protein and 1 mM NADPH in 50 mM phosphate buffer at pH 7.4. Relative quantitation of the metabolites was obtained by LC-MS/MS using an ABSciex (Foster City, CA) API3000 or API4000 Qtrap hybrid linear ion trap mass spectrometer equipped with a TurboIonspray source using either PerkinElmer series 200 pumps or Agilent 1100 series pump with a Leap autosampler. Analytes were separated using a Phenomenex Prodigy ODS(3) 5 μm, 50 × 2.0 mm column at 50°C, eluted and detected under the specific conditions listed in Tables A3, A4, and A5. The analyte to internal standard peak area ratios were determined using Analyst 1.4 software (Applied Biosytems, Carlsbad, CA). The peak area ratios observed in the presence of test article were compared to the vehicle control in order to determine percent activity. To determine the IC50, the data were plotted as Log [dose] μM vs. % inhibition, and analyzed with a sigmoidal dose-response (variable slope) fitting equation. […]

In data set [2] the test system is Cyp1a1. Briefly: Cyp1a1 mRNA induction in primary rat hepatocytes. The class given is cell-based. The settings on record: 10 μM, 24 h, data not shown. On the procedure: Rat hepatocytes were isolated in a perfusion procedure as described previously (Elliget and Kolaja, [1983]; Waring et al., [2001]). The beagle dog hepatocytes were isolated in the same manner, except for adjustment of flow rate and buffer volume to scale to liver size. Cells were plated at a seeding density of 1.0 × 10^6 cells per well on 6-well, collagen-type I coated plates (BD Biosciences, Bedford, MA) in hepatocyte plating medium (Celsis, Baltimore, MD). Cells were allowed to attach for 24 h in a 37°C humidified incubator with a 5% CO2 atmosphere and were dosed for 24 h (rat) or 48 h (dog) with vehicle control [0.1% DMSO (v/v)] or 10 μM A-998679 in fresh treatment media (Celsis hepatocyte incubation media) every 24 h. After the last incubation, cells were lysed in 1 ml of Qiazol (Qiagen) and stored at −80°C until RNA isolation. Cryopreserved human hepatocytes (donor designation Hu4198; Invitrogen Life Technologies, Carlsbad, CA) were thawed and plated according to the manufacturer's protocol and allowed to incubate for 24 h. […]
RNA samples were diluted with RNase-free molecular biology grade water to a concentration of 20 ng/μl total RNA. […] Results were analyzed by calculating the fold change of CYP1A1 and/or CYP1A2 mRNA levels normalized to 28S rRNA (ΔΔ Ct) in compound treated cells or tissues compared to vehicle levels. […]

For data set [3], the target named is T2, CYP2C9 (Homo sapiens, UniProt P11712).
T2 construct: from tissue; host or cells: human liver microsomes
Description: CYP inhibition evaluation in human liver microsomes, CYP2C9 (diclofenac). The class given is in vitro ADME. The settings on record: probe substrate diclofenac. On the procedure:
as §1
Background: Microsomes from liver hold many membrane-bound enzymes, among them those of drug oxidation.

In data set [4] the target is T3, rat Cyp 3A1 (Rattus norvegicus, UniProt P04800).
T3 construct: purchased BD Gentest; host or cells: baculovirus infected insect cells
Description: Recombinant rat Cyp phenotype profiling, 3A1. The note with it: 60 min. The class given is in vitro ADME. The protocol: (§2) Identification of the drug metabolizing enzymes (DMEs) of A-998679 was studied in cDNA expressed recombinant enzymes prepared from baculovirus infected insect cells over-expressing rat Cyp isoforms (BD Gentest, Woburn, MA) as listed in Table 2. Incubations were conducted in duplicate using Supersomes. The incubation mixture contained 100 pmol/ml of enzymes, except for Cyp1a1 (200 pmol/ml), 0.1 or 0.21 μM of [^3H]A-998679 in 100 mM phosphate buffer (pH 7.4). Reactions were initiated with the addition of NADPH at a final concentration of 1 mM and incubated at 37°C for 60 min. At the end of the incubation period, the incubations were terminated by the addition of acetonitrile/ethanol (50/50, v/v) solution. Insect control samples lacking expressed enzyme were used as negative control. The degree of metabolism of A-998679 was assessed by percent of parent remaining using the radio-HPLC method described below.
(§3) Radiolabeled components from the above assays were profiled following separation by HPLC with on line radioflow detector. The system consisted of an Agilent 1100 Series quaternary pump and autosampler connected to a Packard 500TR flow scintillation detector. The data were processed using the Radiomatic™ Flo-one® software v3.65. The scintillant (Perkin Elmer FLO-SCINT™ III) flow was maintained at 3 ml/min. […]

Data set [5] concerns the target T4, rat Cyp 2A1 (Rattus norvegicus, UniProt P11711).
T4 construct: purchased BD Gentest; host or cells: baculovirus infected insect cells
Description: Recombinant rat Cyp phenotype profiling, 2A1. The class given is in vitro ADME. The note with it: 60 min. On the procedure:
as §2, §3

The target in data set [6] is T5, rat Cyp 2A2 (Rattus norvegicus, UniProt P15149).
T5 construct: purchased BD Gentest; host or cells: baculovirus infected insect cells
Description: Recombinant rat Cyp phenotype profiling, 2A2. The class given is in vitro ADME. The settings on record: 60 min. The protocol: as §2, §3

Some results are limits rather than exact numbers.

T5 sequence (P15149 whole entry): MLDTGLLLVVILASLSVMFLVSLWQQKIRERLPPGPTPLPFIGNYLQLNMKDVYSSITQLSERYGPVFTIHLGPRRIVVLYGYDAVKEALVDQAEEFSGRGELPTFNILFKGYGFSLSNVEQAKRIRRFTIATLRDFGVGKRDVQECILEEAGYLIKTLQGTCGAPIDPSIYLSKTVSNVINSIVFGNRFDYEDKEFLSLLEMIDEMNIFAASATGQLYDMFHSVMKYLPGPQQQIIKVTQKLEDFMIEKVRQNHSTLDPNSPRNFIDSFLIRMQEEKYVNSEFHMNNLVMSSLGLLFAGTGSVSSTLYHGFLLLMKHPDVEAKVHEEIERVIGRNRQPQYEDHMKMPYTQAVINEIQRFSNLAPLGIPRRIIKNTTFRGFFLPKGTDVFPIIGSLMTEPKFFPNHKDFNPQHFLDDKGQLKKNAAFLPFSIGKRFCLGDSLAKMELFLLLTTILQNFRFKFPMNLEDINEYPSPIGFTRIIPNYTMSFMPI
T3 sequence (P04800 whole entry): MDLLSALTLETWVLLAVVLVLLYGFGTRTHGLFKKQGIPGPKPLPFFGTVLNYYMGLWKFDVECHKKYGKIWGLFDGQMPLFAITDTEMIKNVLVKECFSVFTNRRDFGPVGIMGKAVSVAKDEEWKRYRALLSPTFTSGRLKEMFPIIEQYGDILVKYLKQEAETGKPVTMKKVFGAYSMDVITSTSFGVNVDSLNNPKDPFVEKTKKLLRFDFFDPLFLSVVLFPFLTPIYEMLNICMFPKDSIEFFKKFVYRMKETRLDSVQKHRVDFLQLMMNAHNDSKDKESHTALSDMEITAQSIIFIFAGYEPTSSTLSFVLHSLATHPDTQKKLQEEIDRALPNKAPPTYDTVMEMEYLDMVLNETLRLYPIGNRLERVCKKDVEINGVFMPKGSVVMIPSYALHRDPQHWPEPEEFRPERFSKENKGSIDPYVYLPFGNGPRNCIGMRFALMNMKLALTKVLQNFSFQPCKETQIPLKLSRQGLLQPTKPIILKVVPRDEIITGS
T4 sequence (P11711 whole entry): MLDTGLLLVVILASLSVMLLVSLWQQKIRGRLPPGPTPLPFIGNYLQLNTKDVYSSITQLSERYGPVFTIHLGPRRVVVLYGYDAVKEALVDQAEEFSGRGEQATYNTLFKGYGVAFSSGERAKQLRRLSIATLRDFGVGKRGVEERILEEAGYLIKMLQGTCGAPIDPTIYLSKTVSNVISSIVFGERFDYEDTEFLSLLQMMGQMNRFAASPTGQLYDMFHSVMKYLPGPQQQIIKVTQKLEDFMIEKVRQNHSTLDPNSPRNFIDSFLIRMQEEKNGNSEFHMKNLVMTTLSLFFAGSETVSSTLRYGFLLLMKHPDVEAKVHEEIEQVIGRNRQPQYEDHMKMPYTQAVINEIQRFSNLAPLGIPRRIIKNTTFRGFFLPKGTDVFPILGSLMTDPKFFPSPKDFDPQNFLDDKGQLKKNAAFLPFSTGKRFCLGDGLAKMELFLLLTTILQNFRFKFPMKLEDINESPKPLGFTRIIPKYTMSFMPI
T2 sequence (P11712 whole entry): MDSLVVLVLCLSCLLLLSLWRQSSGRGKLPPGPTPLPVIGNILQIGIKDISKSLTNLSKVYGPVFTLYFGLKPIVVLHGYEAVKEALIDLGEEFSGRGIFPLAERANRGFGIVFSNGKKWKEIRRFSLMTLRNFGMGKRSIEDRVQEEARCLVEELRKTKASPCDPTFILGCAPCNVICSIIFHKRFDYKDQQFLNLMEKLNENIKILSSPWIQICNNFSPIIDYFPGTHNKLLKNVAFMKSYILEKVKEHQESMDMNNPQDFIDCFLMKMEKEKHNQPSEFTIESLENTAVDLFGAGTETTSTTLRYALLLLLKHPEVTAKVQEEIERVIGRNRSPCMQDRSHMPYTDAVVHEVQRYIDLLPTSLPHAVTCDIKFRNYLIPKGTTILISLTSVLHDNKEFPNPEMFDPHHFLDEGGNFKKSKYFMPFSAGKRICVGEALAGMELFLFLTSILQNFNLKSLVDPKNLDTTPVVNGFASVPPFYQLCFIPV
T1 sequence (P10635 whole entry): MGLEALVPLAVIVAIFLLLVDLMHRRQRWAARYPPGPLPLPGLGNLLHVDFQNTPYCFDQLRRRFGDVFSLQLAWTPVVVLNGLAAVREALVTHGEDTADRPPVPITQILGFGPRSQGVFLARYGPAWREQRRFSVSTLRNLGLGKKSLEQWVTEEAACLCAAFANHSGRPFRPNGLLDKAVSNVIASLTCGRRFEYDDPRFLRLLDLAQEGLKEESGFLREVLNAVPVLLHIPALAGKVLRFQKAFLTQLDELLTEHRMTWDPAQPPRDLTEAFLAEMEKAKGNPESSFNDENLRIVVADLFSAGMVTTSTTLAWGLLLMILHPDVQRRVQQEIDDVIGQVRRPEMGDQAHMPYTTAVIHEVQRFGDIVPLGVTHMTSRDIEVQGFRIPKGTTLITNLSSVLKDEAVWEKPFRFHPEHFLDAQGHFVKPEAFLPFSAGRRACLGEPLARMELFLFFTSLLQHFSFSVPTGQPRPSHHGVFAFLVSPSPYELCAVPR

With `N#Cc1cccc(-c2noc(-c3cccnc3)n2)c1` [A-998679, 3-(5-pyridin-3-yl-1,2,4-oxadiazol-3-yl) benzonitrile], the half-maximal inhibitory concentration (IC50) in data set [1] and in data set [3] was above 30 µM in each case. Besides, the “Cyp1a1 mRNA induction” value in data set [2] is listed as “also observed”. For the same molecule, the “% parent remaining” value in data set [4] (recombinant rat Cyp 3A1, 0.10 μM) is listed as 93.9%; in data set [4] (recombinant rat Cyp 3A1, 0.21 μM), 90.3%; in data set [5] (recombinant rat Cyp 2A1, 0.10 μM) it was 100%; in data set [5] (recombinant rat Cyp 2A1, 0.21 μM) it was 100%; in data set [6] (recombinant rat Cyp 2A2, 0.10 μM), 90.2%; in data set [6] (recombinant rat Cyp 2A2, 0.21 μM), 77.8%.

Values taken from paper PMC3481155, “AhR activation underlies the CYP1A autoinduction by A-998679 in rats” (Frontiers in Genetics, 2012).
